Key:
[1] = tested on: pAKT (S473) in panel of human tumor cell lines harboring PI3Kα kinase-domain mutations and SKBR3; experiment: pAKT (S473) HTRF, human tumor cell line panel; format: cell-based; settings: SK-BR-3, 1 hour treatment, read-out: pAKT IC50 values across the panel of cell lines
Method: (§1) A 384-well phospho-AKT (S473) HTRF (Homogenous Time-Resolve Fluorescence; PerkinElmer, #64AKSPEH) assay was used for target engagement. Each well was seeded with cell numbers indicated in Supplementary Table S3 in a volume of 12.5 μL in complete, phenol red-free media and then treated for 1 hour at 37°C with 5% CO2 before reading on a PHERAstar plate reader.

[2] = tested on: pAKT (S473) in BT20 cells; experiment: pAKT (S473) HTRF; format: cell-based; settings: Homo sapiens, BT-20; BT20, H1047R + P539R; 1 hour; read-out: pAKT HTRF GMean IC50 (95% CI)
Method: as §1

[3] = tested on: pAKT (S473) in CAL33 cells; experiment: pAKT (S473) HTRF; format: cell-based; settings: Homo sapiens, CAL-33; CAL33, H1047R; 1 hour; read-out: pAKT HTRF GMean IC50 (95% CI)
Method: as §1

[4] = tested on: pAKT (S473) in GP2D cells; experiment: pAKT (S473) HTRF; format: cell-based; settings: Homo sapiens, H1047L, 1 hour, read-out: pAKT HTRF GMean IC50 (95% CI)
Method: as §1

[5] = tested on: pAKT (S473) in HCC1954 cells; experiment: pAKT (S473) HTRF; format: cell-based; settings: Homo sapiens; HCC1954, H1047R; 1 hour; read-out: pAKT HTRF GMean IC50 (95% CI)
Method: as §1

[6] = tested on: pAKT (S473) in NCIH1048 cells; experiment: pAKT (S473) HTRF; format: cell-based; settings: Homo sapiens, NCI-H1048; NCIH1048, H1047R + K111R; 1 hour; read-out: pAKT HTRF GMean IC50 (95% CI)
Method: as §1

[7] = tested on: pAKT (S473) in SKBR3 cells; experiment: pAKT (S473) HTRF; format: cell-based; settings: Homo sapiens, SK-BR-3; SKBR3, WT PI3Kα; 1 hour; read-out: pAKT HTRF GMean IC50 (95% CI)
Method: as §1

BT20 cells = experiment: Cell viability CellTiter-Glo; format: cell-based; settings: Homo sapiens, BT-20; BT20, H1047R + P539R; 72 hours; read-out: CTGlo GMean GI50 (95% CI)
Method: (§2) Cell viability was measured using CellTiter-Glo (Promega, #G9243). Indicated cell lines were seeded according to Supplementary Table S3 in 50 μL of media in 384-well plates, with 72 hours of treatment at 37°C with 5% CO2.

CAL148 cells = experiment: Cell viability CellTiter-Glo; format: cell-based; settings: Homo sapiens, CAL-148; CAL148, H1047R + D350N; 72 hours; read-out: CTGlo GMean GI50 (95% CI)
Method: as §2

CAL33 cells = experiment: Cell viability CellTiter-Glo; format: cell-based; settings: Homo sapiens, CAL-33; CAL33, H1047R; 72 hours; read-out: CTGlo GMean GI50 (95% CI)
Method: as §2

DETROIT562 cells = experiment: Cell viability CellTiter-Glo; format: cell-based; settings: Homo sapiens, Detroit 562; DETROIT562, H1047R; 72 hours; read-out: CTGlo GMean GI50 (95% CI)
Method: as §2

EFM19 cells = experiment: Cell viability CellTiter-Glo; format: cell-based; settings: Homo sapiens, EFM-19; EFM19, H1047L; 72 hours; read-out: CTGlo GMean GI50 (95% CI)
Method: as §2

GP2D cells = experiment: Cell viability CellTiter-Glo; format: cell-based; settings: Homo sapiens, H1047L, 72 hours, read-out: CTGlo GMean GI50 (95% CI)
Method: as §2

HCC1954 cells = experiment: Cell viability CellTiter-Glo; format: cell-based; settings: Homo sapiens; HCC1954, H1047R; 72 hours; read-out: CTGlo GMean GI50 (95% CI)
Method: as §2

NCIH1048 cells = experiment: Cell viability CellTiter-Glo; format: cell-based; settings: Homo sapiens, NCI-H1048; NCIH1048, H1047R + K111R; 72 hours; read-out: CTGlo GMean GI50 (95% CI)
Method: as §2

OAW42 cells = experiment: Cell viability CellTiter-Glo; format: cell-based; settings: Homo sapiens, OAW-42; OAW42, H1047L; 72 hours; read-out: CTGlo GMean GI50 (95% CI)
Method: as §2

SKBR3 cells = experiment: Cell viability CellTiter-Glo; format: cell-based; settings: Homo sapiens, SK-BR-3; SKBR3, WT PI3Kα; 72 hours; read-out: CTGlo GMean GI50 (95% CI)
Method: as §2

T47D cells = experiment: Cell viability CellTiter-Glo; format: cell-based; settings: Homo sapiens, H1047R, 72 hours, read-out: CTGlo GMean GI50 (95% CI)
Method: as §2

[8] = Insulin tolerance test (ITT) and oral glucose tolerance test (OGTT); format: in vivo, mouse; settings: 50 mg/kg dose levels
[9] = tested on: CAL-33 (H1047R PI3Kα) HNSCC xenograft; experiment: CAL-33 xenograft efficacy study; format: in vivo, mouse; settings: Alpelisib 50 mg/kg QD, Day 28
[10] = tested on: NCI-H1048 lung carcinoma xenograft; experiment: NCI-H1048 xenograft efficacy study; format: in vivo, mouse; settings: Alpelisib 50 mg/kg QD, Day 23
[11] = tested on: T47D ER+HER2- breast cancer xenograft; experiment: T47D xenograft efficacy study; format: in vivo, mouse; settings: Alpelisib 50 mg/kg QD, Day 20
[12] = tested on: PI3Kα-mutant, ER+HER2- metastatic breast cancer; settings: alpelisib in combination with fulvestrant, median follow-up 20 months; cited from earlier work
[13] = alpelisib with ribociclib and fulvestrant, in the clinic; cited from earlier work
[14] = Tolerability measures in CDX studies: body weight and insulin 1 hour after dose; settings: for Δ Insulin: Alpelisib 50 mg/kg QD, one-hour post dose

Cc1nc(NC(=O)N2CCC[C@H]2C(N)=O)sc1-c1ccnc(C(C)(C)C(F)(F)F)c1 [alpelisib]
IC50 [1]: 0.028 to 0.268 µM
IC50 [2]: 0.136 µM
IC50 [3]: 0.071 µM
IC50 [4]: 0.066 µM
IC50 [5]: 0.256 µM
IC50 [6]: 0.028 µM
IC50 [7]: 0.041 µM
GI50 (BT20 cells): 0.516 µM
GI50 (CAL148 cells): 0.962 µM
GI50 (CAL33 cells): 0.34 µM
GI50 (DETROIT562 cells): 0.436 µM
GI50 (EFM19 cells): 0.127 µM
GI50 (GP2D cells): 0.298 µM
GI50 (HCC1954 cells): 0.384 µM
GI50 (NCIH1048 cells): 0.067 µM
GI50 (OAW42 cells): 0.601 µM
GI50 (SKBR3 cells): 0.335 µM
GI50 (T47D cells): 0.334 µM
insulin resistance [8]: overt insulin resistance
TGI (%) [9]: 79%
TGI (%) [10]: 87%
TGI (%) [11]: 100%
progression-free survival time [12]: 11.0 months
tolerability of triple combination [13]: not tolerated in the clinic
Δ Insulin ([14]; Cal33 model): +1.07 ng/mL
Δ Insulin ([14]; Detroit 562 model): +2.33 ng/mL
Δ Insulin ([14]; GP2D model): +1.59 ng/mL
Δ Insulin ([14]; HCC1954 model): +2.38 ng/mL
Δ Insulin ([14]; NCI-H1048 model): +1.21 ng/mL
effects on body weight across studies ([14]; STX-478 100 mg/kg q.d., alpelisib 50 mg/kg q.d.): No treatment-specific effects on body weight
Δ Insulin ([14]; T-47D model): +0.79 ng/mL

Source: article PMC10618743 (Cancer Discovery, 2023)
